Read-outs that look alike come from different tables or passages of the source.
Experiment: Measurement of log P values by HPLC on reversed phase columns (methods [a] pH 2.3, [b] pH 2.7, [c] pH 7.8)
Assay type: physicochemical
Settings: for chromatographic logP: reversed phase HPLC columns, read-out: logP
In short: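 Retention times were converted to log P by linear interpolation between linear alkan-2-one standards (3 to 16 carbons) of known log P. Eluents, each with 10% to 95% acetonitrile gradient: phosphoric acid 0.1% at pH 2.3 [a]; formic acid 0.1% at pH 2.7, LC-MS [b]; ammonium hydrogen carbonate 0.001 molar at pH 7.8, LC-MS [c].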

[1] = HPLC reversed phase, method [b] (pH 2.7)
[2] = HPLC reversed phase, method [c] pH 7.8
[3] = pH 2.7, HPLC reversed phase, method [b] (pH 2.7)
[4] = HPLC on reversed phase column, method [b], pH 2.7
[5] = HPLC on reversed phase column, method [c], pH 7.8
[6] = HPLC on reversed phase columns, method [b], pH 2.7

Row | SMILES | logP [1] | further results
1 | O=C(NC1CCCCC1c1c(F)cccc1F)c1ccccc1I (centres unmarked) [Example 400] | 3.84^[b] | –
2 | Cc1nc(C)c(C(=O)NC2CCCCC2c2ccccc2Br)s1 (centres unmarked) [Example 401] | 3.35^[b] | –
3 | Cc1nn(C)cc1C(=O)NC1CCCCC1c1ccccc1Br (centres unmarked) [Example 402] | 2.74^[b] | –
4 | O=C(NC1CCCCC1c1ccccc1Br)c1cccnc1C(F)(F)F (centres unmarked) [Example 403] | 3.53^[b] | –
5 | O=C(NC1CCCCC1c1ccccc1Br)c1c(F)cccc1F (centres unmarked) [Example 404] | 3.78^[b] | –
6 | O=C(NC1CCCCC1c1ccccc1Br)c1ccccc1Cl (centres unmarked) [Example 405] | 3.97^[b] | –
7 | O=C(NC1CCCCC1c1ccccc1Br)c1ccccc1I (centres unmarked) [Example 406] | 4.12^[b] | –
8 | O=C(NC1CCCCC1c1ccccc1Br)c1ccccc1C(F)(F)F (centres unmarked) [Example 407] | 4.10^[b] | –
9 | O=C(NC1CCCCC1c1ccc(Cl)cc1Cl)c1cccnc1Cl (centres unmarked) [Example 408] | 3.76^[b] | –
10 | O=C(NC1CCCCC1c1ccc(Cl)cc1Cl)c1ccccc1Cl (centres unmarked) [Example 409] | 4.47^[b] | –
11 | Cc1nc(C)c(C(=O)NC2CCCCC2c2ccc(Cl)cc2Cl)s1 (centres unmarked) [Example 410] | 3.88^[b] | –
12 | O=C(NC1CCCCC1c1ccc(Cl)cc1Cl)c1c(F)cccc1F (centres unmarked) [Example 411] | 4.26^[b] | –
13 | O=C(NC1CCCCC1c1ccc(Cl)cc1Cl)c1ccccc1C(F)(F)F (centres unmarked) [Example 412] | 4.49^[b] | –
14 | O=C(NC1CCCCC1c1ccccc1Br)c1cccnc1Cl (centres unmarked) [Example 413] | 3.25^[b] | –
15 | O=C(NC1CCCCC1c1ccc(Cl)cc1Cl)c1ccccc1I (centres unmarked) [Example 415] | 4.57^[b] | –
16 | Cc1nn(C)cc1C(=O)NC1CCCCC1c1ccc(Cl)cc1Cl (centres unmarked) [Example 416] | 3.19^[b] | –
17 | O=C(NC1CCCCCC1c1ccccc1C(F)(F)F)c1cccnc1C(F)(F)F (centres unmarked) [Example 418] | 3.94^[b] | –
18 | O=C(NC1CCCCCC1c1ccccc1C(F)(F)F)c1ccccc1I (centres unmarked) [Example 419] | 4.59^[b] | –
19 | O=C(NC1CCCCCC1c1ccccc1C(F)(F)F)c1ccccc1C(F)(F)F (centres unmarked) [Example 420] | 4.55^[b] | –
20 | Cn1cc(C(=O)NC2CCCCCC2c2ccccc2C(F)(F)F)c(C(F)F)n1 (centres unmarked) [Example 421] | 3.69^[b] | –
21 | O=C(NC1CC1c1ccc(Cl)cc1)c1ccccc1F (centres unmarked) [Example 422] | 3.12^[b] | logP [2]: 3.07^[c];

Row | SMILES | logP [1] | further results
22 | O=C(NC1CC1c1ccc(Cl)cc1)c1ccccc1Br (centres unmarked) [Example 423] | 3.13^[b] | logP [2]: 3.07^[c];
23 | O=C(NC1CCC1c1ccccc1C(F)(F)F)c1ccccc1I (centres unmarked) [Example 428] | 3.42^[b] | –
24 | O=C(NC1CCC1c1ccccc1C(F)(F)F)c1ccc(Cl)cc1 (centres unmarked) [Example 429] | 3.56^[b] | –
25 | O=C(NC1CCC1c1ccccc1C(F)(F)F)c1ccccc1Cl (centres unmarked) [Example 433] | 3.01^[b] | –
26 | O=C(NC1CCC1c1ccccc1C(F)(F)F)c1cccc(Cl)c1 (centres unmarked) [Example 436] | 3.59^[b] | –
27 | O=C(NC1CCC1c1ccccc1C(F)(F)F)c1ncc(C(F)(F)F)cc1Cl (centres unmarked) [Example 437] | 3.88^[b] | –
28 | O=C(NC1CCC1c1c(F)cccc1F)c1c(F)cccc1F (centres unmarked) [Example 439] | 2.83^[b] | –
29 | O=C(NC1CCC1c1c(F)cccc1F)c1ccc(Cl)cc1Cl (centres unmarked) [Example 441] | 3.49^[b] | –
30 | O=C(NC1CCC1c1c(F)cccc1F)c1cccc(Cl)c1 (centres unmarked) [Example 442] | 3.26^[b] | –
31 | O=C(NC1CCC1c1c(F)cccc1F)c1ccc(Cl)cc1 (centres unmarked) [Example 444] | 3.20^[b] | –
32 | O=C(NC1CCC1c1ccccc1Cl)c1cccc(Cl)c1 (centres unmarked) [Example 445] | 3.75^[b] | –
33 | O=C(NC1CCC1c1ccccc1Cl)c1ccc(Cl)cc1 (centres unmarked) [Example 446] | 3.70^[b] | –
34 | O=C(NC1CCC1c1ccccc1Cl)c1ccccc1 (centres unmarked) [Example 447] | 3.14^[b] | –
35 | O=C(NC1CCC1c1ccccc1Cl)c1cccc(Cl)c1 (centres unmarked) [Example 448] | 3.36^[b] | –
36 | O=C(NC1CCC1c1ccccc1Cl)c1ccccc1 (centres unmarked) [Example 449] | 2.81^[b] | –
37 | O=C(NC1CCC1c1ccc(Cl)cc1Cl)c1ccccc1 (centres unmarked) [Example 450] | 3.75^[b] | –
38 | O=C(NC1CCC1c1ccc(Cl)cc1Cl)c1ccc(Cl)cc1 (centres unmarked) [Example 452] | 4.33^[b] | –
39 | O=C(NC1CCC1c1ccc(Cl)cc1Cl)c1ccc(Cl)cc1 (centres unmarked) [Example 453] | 3.85^[b] | –
40 | O=C(N[C@@H]1CC[C@H]1c1ccc(Cl)cc1Cl)c1cccc(Cl)c1 [Example 454] | – | chromatographic logP [3]: 4.4
41 | O=C(N[C@@H]1CC[C@@H]1c1ccccc1Cl)c1ccc(Cl)cc1 [Example 455] | – | chromatographic logP [3]: 3.35
42 | O=C(NC1CCC1c1ccc(Cl)cc1Cl)c1cccc(Cl)c1 (centres unmarked) [Example 457] | 3.87^[b] | –

Row | SMILES | logP [1] | further results
43 | O=C(NC1CCC1c1ccccc1C(F)(F)F)c1ncccc1Cl (centres unmarked) [Example 458] | 3.22^[b] | –
44 | O=C(NC1CC1c1ccc(Cl)cc1)c1ccccc1C(F)F (centres unmarked) [Example 459] | 2.90^[b] | logP [2]: 2.88^[c];
45 | O=C(NC1CC1c1ccc(Cl)cc1)c1c(F)cccc1Cl (centres unmarked) [Example 463] | 2.83^[b] | logP [2]: 2.75^[c];
46 | O=C(NC1CC1c1ccc(Cl)cc1)c1c(F)cccc1I (centres unmarked) [Example 464] | 3.02^[b] | logP [2]: 2.99^[c];
47 | O=C(NC1CC1c1ccc(Cl)cc1)c1c(F)cc(F)cc1F (centres unmarked) [Example 466] | 2.80^[b] | logP [2]: 2.78^[c];
48 | O=C(NC1CC1c1ccc(Cl)cc1)c1ccccc1[N+](=O)[O-] (centres unmarked) [Example 467] | 2.59^[b] | logP [2]: 2.45^[c];
49 | Cn1cc(C(=O)NC2CCC2c2ccc(Cl)cc2Cl)c(C(F)F)n1 (centres unmarked) [Example 468] | 3.26^[b] | –
50 | Cn1cc(C(=O)NC2CCC2c2ccc(Cl)cc2Cl)c(C(F)F)n1 (centres unmarked) [Example 469] | 2.95^[b] | –
51 | O=C(NC1CCC1c1ccc(Cl)cc1Cl)c1cccnc1C(F)(F)F (centres unmarked) [Example 470] | 3.45^[b] | –
52 | O=C(NC1CCC1c1ccc(Cl)cc1Cl)c1ccccc1Br (centres unmarked) [Example 471] | 3.92^[b] | –
53 | O=C(NC1CCC1c1ccc(Cl)cc1Cl)c1ccccc1C(F)(F)F (centres unmarked) [Example 474] | 4.02^[b] | –
54 | O=C(NC1CCC1c1ccc(F)cc1C(F)(F)F)c1cccc(Cl)c1 (centres unmarked) [Example 477] | 4.02^[b] | –
55 | O=C(NC1CCC1c1ccc(F)cc1C(F)(F)F)c1ncc(C(F)(F)F)cc1Cl (centres unmarked) [Example 480] | 4.23^[b] | –
56 | O=C(NC1CCC1c1ccc(F)cc1C(F)(F)F)c1ncc(C(F)(F)F)cc1Cl (centres unmarked) [Example 483] | 3.97^[b] | –
57 | Cn1cc(C(=O)NC2CCC2c2ccc(F)cc2C(F)(F)F)c(C(F)F)n1 (centres unmarked) [Example 484] | 3.02^[b] | –
58 | Cn1cc(C(=O)NC2CCC2c2c(F)cccc2F)c(C(F)F)n1 (centres unmarked) [Example 486] | 2.42^[b] | –
59 | O=C(N[C@@H]1CC[C@H]1c1ccccc1C(F)(F)F)c1ccccc1I [Example 497] | – | chromatographic logP [3]: 3.61
60 | O=C(N[C@@H]1CC[C@H]1c1ccccc1C(F)(F)F)c1ccccc1Cl [Example 498] | – | chromatographic logP [3]: 3.42
61 | O=C(NC1CC1c1ccccc1Cl)c1cccnc1C(F)(F)F (centres unmarked) [Example 499] | 2.62^[b] | –
62 | O=C(NC1CC1c1ccccc1C(F)(F)F)c1cccnc1C(F)(F)F (centres unmarked) [Example 500] | 2.79^[b] | –
63 | O=C(NC1CCC1c1c(F)cccc1F)c1ccccc1 (centres unmarked) [Example 514] | 2.75^[b] | –

Row | SMILES | logP [1] | further results
64 | O=C(NC1CCC1c1ccccc1C(F)(F)F)c1nccnc1C(F)(F)F (centres unmarked) [Example 604] | – | logP [4]: 3.18^[b]; logP [5]: 3.10^[c];
65 | O=C(NC1CCC1c1ccccc1C(F)(F)F)c1ncccc1Br (centres unmarked) [Example 605] | – | logP [4]: 3.17^[b]; logP [5]: 3.10^[c];
66 | CC1=C(C(=O)NC2CCC2c2ccccc2C(F)(F)F)S(=O)(=O)CCO1 (centres unmarked) [Example 606] | – | logP [4]: 2.49^[b]; logP [5]: 2.45^[c];
67 | O=C(N[C@@H]1CC[C@H]1c1ccccc1C(F)(F)F)c1cccnc1Cl [Example 620] | – | chromatographic logP (pH 2.7, HPLC on reversed phase column, method [b], pH 2.7): 2.79
68 | O=C(NC1CCC1c1ccccc1C(F)(F)F)c1nccnc1C(F)(F)F (centres unmarked) [Example 687] | – | logP [4]: 3.31^[b]; logP [5]: 3.25^[c];
69 | O=C(NC1CCC1c1ccccc1C(F)(F)F)c1ncccc1Br (centres unmarked) [Example 691] | – | logP [4]: 3.34^[b]; logP [5]: 3.27^[c];
70 | O=C(NC1CCC1c1ccc(Cl)cc1C(F)(F)F)c1sccc1I (centres unmarked) [Example 710] | – | logP [4]: 4.55^[b]
71 | O=C(NC1CCC1c1ccc(Cl)cc1C(F)(F)F)c1sccc1I (centres unmarked) [Example 711] | – | logP [4]: 4.28^[b]
72 | Cn1cc(C(=O)NC2CCC2c2ccc(Cl)cc2C(F)(F)F)c(C(F)F)n1 (centres unmarked) [Example 718] | – | logP [6]: 3.41^[b]
73 | Cn1cc(C(=O)NC2CCC2c2ccc(Cl)cc2C(F)(F)F)c(C(F)F)n1 (centres unmarked) [Example 719] | – | logP [6]: 3.17^[b]
74 | O=C(NC1CCC1c1ccc(Cl)cc1C(F)(F)F)c1cccnc1C(F)(F)F (centres unmarked) [Example 720] | – | logP [6]: 3.60^[b]
75 | O=C(NC1CCC1c1ccc(Cl)cc1C(F)(F)F)c1cccnc1C(F)(F)F (centres unmarked) [Example 721] | – | logP [6]: 3.36^[b]
76 | O=C(NC1CCC1c1ccc(Cl)cc1C(F)(F)F)c1ccccc1Br (centres unmarked) [Example 722] | – | logP [6]: 4.08^[b]
77 | O=C(NC1CCC1c1ccc(Cl)cc1C(F)(F)F)c1ccccc1Br (centres unmarked) [Example 723] | – | logP [6]: 3.80^[b]
78 | O=C(NC1CCC1c1c(Cl)cccc1Cl)c1cccnc1 (centres unmarked) [Example 724] | – | logP [6]: 2.17^[b]
79 | O=C(NC1CCC1c1c(Cl)cccc1Cl)c1cccnc1Cl (centres unmarked) [Example 725] | – | logP [6]: 2.79^[b]
80 | Cn1cc(C(=O)NC2CCC2c2c(Cl)cccc2Cl)c(C(F)F)n1 (centres unmarked) [Example 726] | – | logP [6]: 2.90^[b]
81 | O=C(NC1CCC1c1c(Cl)cccc1Cl)c1c(F)cccc1F (centres unmarked) [Example 727] | – | logP [6]: 3.33^[b]
82 | O=C(NC1CCC1c1c(Cl)cccc1Cl)c1ccccc1 (centres unmarked) [Example 728] | – | logP [6]: 3.30^[b]
83 | O=C(NC1CCC1c1c(Cl)cccc1Cl)c1cccc(Cl)c1 (centres unmarked) [Example 729] | – | logP [6]: 3.87^[b]

Source: patent US20160075653A1, “NEMATICIDAL N-(PHENYLCYCLOALKYL)CARBOXAMIDES AND N-(PHENYLCYCLOALKYL)THIOCARBOXAMIDES” (BAYER CROPSCIENCE AKTIENGESELLSCHAFT, priority 2013, published 2016)
